Source: PubChem BioAssay (NCI)
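Dose response: 5 concentrations. Exposure: 48 h. Format: 96-well plates. Endpoint: linear interpolation; highest concentration if not reached. GI50 is the concentration that inhibits growth by half. Definition used: TGI = concentration required for complete inhibition of growth.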

Key:
Experiment in all cases: inhibition of tumour cell growth, NCI panel, 48 h
[1] = tested on: NCI-H522 lung
[2] = tested on: UACC-257 melanoma
[3] = tested on: SF-295 CNS
[4] = tested on: SK-MEL-28 melanoma
[5] = tested on: MDA-MB-435
[6] = tested on: OVCAR-4 ovarian
[7] = tested on: 786-0 renal
[8] = tested on: UACC-62 melanoma
[9] = tested on: NCI-H460 lung
[10] = tested on: A549 NSCLC

Structure (SMILES): Cc1c(O)nc(-n2[nH]c3c(c2=O)CCCC3)[nH]c1=O
- TGI [1]: > 100 µM
- TGI [2]: > 100 µM
- TGI [3]: > 100 µM
- TGI [4]: > 100 µM
- TGI [5]: > 100 µM
- TGI [6]: > 100 µM
- TGI [7]: > 100 µM
- TGI [8]: > 100 µM
- TGI [9]: > 100 µM

Structure (SMILES): C=C(C(=O)OCC)C(=O)OCC
- TGI [1]: > 100 µM
- TGI [2]: > 100 µM
- TGI [10]: > 100 µM
- TGI [3]: > 100 µM
- TGI [4]: > 100 µM
- TGI [5]: > 100 µM
- TGI [7]: > 100 µM
- TGI [8]: > 100 µM
- TGI [9]: > 100 µM

Structure (SMILES): Cc1ccc(C2=CC(=O)OC(C[P+](c3ccccc3)(c3ccccc3)c3ccccc3)(c3ccccc3)O2)cc1 (stereo not given)
- TGI [1]: 26 µM
- TGI [2]: 30.8 µM
- TGI [10]: 34.3 µM
- TGI [3]: 45.5 µM
- TGI [4]: 33.5 µM
- TGI [5]: 30.7 µM
- TGI [6]: 31.5 µM
- TGI [7]: 35.7 µM
- TGI [8]: 30.5 µM
- TGI [9]: 43.8 µM

Structure (SMILES): S=c1c2cn[nH]c2nc2scc(-c3ccc(Cl)cc3)n12
- TGI [1]: 46.9 µM
- TGI [2]: > 100 µM
- TGI [10]: 30.5 µM
- TGI [4]: 46.6 µM
- TGI [5]: 15.7 µM
- TGI [6]: > 100 µM
- TGI [7]: 29.4 µM
- TGI [8]: > 100 µM
- TGI [9]: 57.5 µM

Structure (SMILES): CC(NC(=O)Cc1ccccc1)NC(=O)C(C)C(=O)Nc1ccccc1 (stereo not given)
- TGI [1]: > 100 µM
- TGI [2]: > 100 µM
- TGI [10]: > 100 µM
- TGI [3]: > 100 µM
- TGI [5]: > 100 µM
- TGI [6]: > 100 µM
- TGI [7]: > 100 µM
- TGI [8]: > 100 µM
- TGI [9]: > 100 µM

Structure (SMILES): C=C1C(=O)CC2C1CC(=O)/C(C)=C/CCC(C)(O)C2O (stereo not given)
- TGI [1]: 3.04 µM
- TGI [2]: 12.6 µM
- TGI [10]: 46.5 µM
- TGI [3]: 47.8 µM
- TGI [4]: 33.3 µM
- TGI [5]: 20.4 µM
- TGI [6]: 29.1 µM
- TGI [7]: 7.91 µM
- TGI [8]: 14.8 µM
- TGI [9]: 45.5 µM

Structure (SMILES): COc1ccc(C2c3cn[nH]c3CC3CCCCC32)cc1 (stereo not given)
- TGI [1]: 36.3 µM
- TGI [2]: 45.9 µM
- TGI [10]: 30.9 µM
- TGI [4]: 33.4 µM
- TGI [5]: 40.4 µM
- TGI [6]: 43.5 µM
- TGI [7]: 33.2 µM
- TGI [8]: 24.6 µM
- TGI [9]: 30.8 µM

Structure (SMILES): COC(=O)C(Cc1ccc2c(c1)CCC2)Cc1ccc2c(c1)CCC2
- TGI [1]: > 100 µM
- TGI [2]: > 100 µM
- TGI [10]: > 100 µM
- TGI [3]: > 100 µM
- TGI [4]: > 100 µM
- TGI [5]: > 100 µM
- TGI [6]: > 100 µM
- TGI [7]: > 100 µM
- TGI [8]: > 100 µM
- TGI [9]: > 100 µM

Structure (SMILES): COc1ccc(N2C(=O)CC(=O)N(NC(=O)C(C)Oc3ccccc3C)C2=S)cc1 (stereo not given)
- TGI [1]: > 100 µM
- TGI [2]: > 100 µM
- TGI [10]: > 100 µM
- TGI [3]: > 100 µM
- TGI [4]: > 100 µM
- TGI [5]: > 100 µM
- TGI [6]: > 100 µM
- TGI [7]: > 100 µM
- TGI [8]: > 100 µM
- TGI [9]: > 100 µM

Structure (SMILES): C/C(C[n+]1ccccc1)=N\N=C(N)N
- TGI [1]: > 100 µM
- TGI [2]: > 100 µM
- TGI [10]: > 100 µM
- TGI [3]: > 100 µM
- TGI [4]: > 100 µM
- TGI [5]: > 100 µM
- TGI [6]: > 100 µM
- TGI [7]: > 100 µM
- TGI [8]: > 100 µM
- TGI [9]: > 100 µM

Structure (SMILES): CC(=O)NC1C(OCc2ccccc2)OC(CO)C(O)C1OCC(=O)N[C@@H](C)C(=O)N[C@H](CCC(=O)NCCCNc1c2ccccc2nc2cccc([N+](=O)[O-])c12)C(N)=O (stereo not given in full)
- TGI [1]: 0.0383 µM
- TGI [2]: 0.177 µM
- TGI [3]: 1.33 µM
- TGI [4]: 0.751 µM
- TGI [5]: 0.132 µM
- TGI [6]: 0.267 µM
- TGI [7]: 0.0795 µM
- TGI [8]: 0.0601 µM
- TGI [9]: 0.0609 µM

Structure (SMILES): C[C@H](CCC(=O)O)[C@H]1CC[C@H]2[C@@H]3C(=O)C[C@@H]4C[C@H](O)CC[C@]4(C)[C@H]3C[C@H](O)[C@]12C
- TGI [1]: > 100 µM
- TGI [2]: > 100 µM
- TGI [10]: > 100 µM
- TGI [4]: > 100 µM
- TGI [5]: > 100 µM
- TGI [6]: > 100 µM
- TGI [7]: > 100 µM
- TGI [8]: > 100 µM
- TGI [9]: > 100 µM

Structure (SMILES): CN1CCOC1c1ccccc1O (stereo not given)
- TGI [1]: > 100 µM
- TGI [2]: > 100 µM
- TGI [10]: > 100 µM
- TGI [3]: > 100 µM
- TGI [5]: > 100 µM
- TGI [6]: > 100 µM
- TGI [7]: > 100 µM
- TGI [8]: > 100 µM
- TGI [9]: > 100 µM

Structure (SMILES): CC(C)c1cc2c(c(O)c1O)[C@@]1(C(=O)O)CCCC(C)(C)[C@@H]1CC2
- TGI [1]: 25.8 µM
- TGI [2]: 33.4 µM
- TGI [10]: 67.4 µM
- TGI [3]: 68.5 µM
- TGI [4]: 29.8 µM
- TGI [5]: 34.5 µM
- TGI [6]: > 100 µM
- TGI [7]: > 100 µM
- TGI [8]: 30.8 µM
- TGI [9]: 50.9 µM

Structure (SMILES): COc1ccc(C2OC(c3ccncc3)=NN2C)cc1F (stereo not given)
- TGI [1]: > 100 µM
- TGI [2]: > 100 µM
- TGI [10]: > 100 µM
- TGI [3]: > 100 µM
- TGI [4]: > 100 µM
- TGI [5]: > 100 µM
- TGI [6]: > 100 µM
- TGI [7]: > 100 µM
- TGI [8]: > 100 µM
- TGI [9]: > 100 µM

Structure (SMILES): C[n+]1c(/C=C/c2c(O)ccc3ccccc23)ccc2ccccc21
- GI50 [1]: 2.52 µM
- TGI [1]: 10.2 µM
- GI50 [2]: 7.17 µM
- TGI [2]: 14.9 µM
- GI50 [10]: 7.76 µM
- TGI [10]: 16.1 µM
- GI50 [3]: 5.82 µM
- TGI [3]: 13.5 µM
- GI50 [4]: 7.91 µM
- TGI [4]: 15.1 µM
- GI50 [5]: 5.84 µM
- TGI [5]: 12.6 µM
- GI50 [6]: 3.39 µM
- TGI [6]: 10.5 µM
- GI50 [8]: 5.77 µM
- TGI [8]: 12.2 µM
- GI50 [9]: 6.32 µM
- TGI [9]: 14.5 µM

Structure (SMILES): CC(C)(C)[Si](C)(C)OCC1OC(n2ccc(=O)[nH]c2=O)C(O[Si](C)(C)C(C)(C)C)/C1=C/C#N (stereo not given)
- TGI [1]: > 100 µM
- TGI [2]: > 100 µM
- TGI [10]: > 100 µM
- TGI [3]: > 81.4 µM
- TGI [4]: > 71.5 µM
- TGI [5]: > 38.7 µM
- TGI [6]: > 100 µM
- TGI [7]: > 100 µM
- TGI [8]: 2.75 µM
- TGI [9]: > 100 µM

Structure (SMILES): O=C(CCn1ccnc1[N+](=O)[O-])NCCCn1ccnc1[N+](=O)[O-]
- TGI [1]: > 100 µM
- TGI [2]: > 100 µM
- TGI [10]: > 100 µM
- TGI [3]: > 100 µM
- TGI [4]: > 100 µM
- TGI [5]: > 100 µM
- TGI [6]: > 100 µM
- TGI [7]: > 100 µM
- TGI [8]: > 100 µM
- TGI [9]: > 100 µM

Structure (SMILES): CC1=CCC([C@@](C)(O)CCCC(C)(C)N=C=S)CC1 (stereo not given in full)
- TGI [1]: 33.8 µM
- TGI [2]: 35 µM
- TGI [10]: 34.2 µM
- TGI [3]: 36.3 µM
- TGI [4]: 30.2 µM
- TGI [5]: 31 µM
- TGI [6]: 30.9 µM
- TGI [7]: 31.6 µM
- TGI [8]: 34.7 µM
- TGI [9]: 33 µM

Structure (SMILES): CCOC(=O)c1cccc(N=Nc2nc[nH]c2/C=C/C(=O)OC)c1
- TGI [1]: > 100 µM
- TGI [2]: 60.4 µM
- TGI [10]: > 100 µM
- TGI [3]: > 100 µM
- TGI [4]: > 100 µM
- TGI [5]: > 100 µM
- TGI [6]: > 100 µM
- TGI [7]: > 100 µM
- TGI [8]: > 100 µM
- TGI [9]: 53 µM
